TGI data for eleven compounds are collected here from PubChem BioAssay (NCI).

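Values below derive from 48-hour exposures of cells grown in 96-well plates, with endpoints linearly interpolated between the two concentrations bracketing the appropriate inhibition level. TGI is the concentration that stops growth completely.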

Among the test systems are SR leukemia; HS 578T breast; NCI-H522 lung; LOX IMVI melanoma; MALME-3M melanoma; UACC-62 melanoma; DU-145 prostate; RXF 393 renal; HCT-15 colon; UACC-257 melanoma; MDA-MB-435; HOP-92 NSCLC.
Common to all, as to test: NCI anticancer screen, dose series, 48 h

Consider `CCCC(=O)NC(Nc1ccc(S(=O)(=O)Nc2ccc(OC)nn2)cc1)(C(F)(F)F)C(F)(F)F`, for which the TGI with SR leukemia, with HS 578T breast, with NCI-H522 lung, in the experiment on LOX IMVI melanoma, in the experiment with MALME-3M melanoma and with UACC-62 melanoma was greater than 100 µM in each case. The TGI in the experiment with DU-145 prostate, in the experiment on RXF 393 renal, in the experiment with HCT-15 colon, with UACC-257 melanoma, with MDA-MB-435 and in the experiment with HOP-92 NSCLC was greater than 100 µM in each case.
Consider `COc1ccc(/C=C/C(=O)c2ccc(OC(=O)/C=C/c3ccccc3)cc2)cc1`, for which the TGI in the experiment on SR leukemia is 16.9 µM; in the experiment with HS 578T breast it was greater than 100 µM; in the experiment on NCI-H522 lung, 54.7 µM; in the experiment on LOX IMVI melanoma it was greater than 100 µM; in the experiment on MALME-3M melanoma, greater than 100 µM; with UACC-62 melanoma, greater than 63.7 µM. Besides, the TGI in the experiment with DU-145 prostate was greater than 74.2 µM; with RXF 393 renal it was greater than 100 µM; in the experiment on HCT-15 colon, greater than 100 µM; with UACC-257 melanoma it was greater than 100 µM; in the experiment with MDA-MB-435, greater than 100 µM; with HOP-92 NSCLC it was greater than 100 µM.
On to `COc1cccc(/C=C\c2ccc(O)cc2)c1`, for which the TGI in the experiment with SR leukemia was 20.1 µM; in the experiment on HS 578T breast, 75 µM; in the experiment with NCI-H522 lung, 56.8 µM; in the experiment with LOX IMVI melanoma it was 41.2 µM; with MALME-3M melanoma, 65.9 µM; in the experiment with UACC-62 melanoma it was greater than 100 µM. For the same compound, the TGI is 56.6 µM in the experiment with DU-145 prostate; greater than 78.8 µM in the experiment on RXF 393 renal; greater than 76.1 µM with HCT-15 colon; greater than 100 µM in the experiment with UACC-257 melanoma; greater than 91.2 µM in the experiment with MDA-MB-435; 64.8 µM in the experiment with HOP-92 NSCLC.
For the compound `COc1cc2ccc1OCc1cccc(n1)COc1ccc(cc1OC)C=NCCNCCN=C2`, the TGI in the experiment on SR leukemia, in the experiment with HS 578T breast, in the experiment with NCI-H522 lung, in the experiment with LOX IMVI melanoma, in the experiment on MALME-3M melanoma and with DU-145 prostate was greater than 100 µM in each case. In addition, the TGI in the experiment with RXF 393 renal, with HCT-15 colon, in the experiment with UACC-257 melanoma, in the experiment on MDA-MB-435 and in the experiment on HOP-92 NSCLC was greater than 100 µM throughout.
Turning to `O=C1C(S(=O)(=O)c2ccccc2)=C(CS(=O)(=O)c2ccccc2)[C@@H](OCc2ccccc2)[C@@H]1OCc1ccccc1`, the TGI with SR leukemia came out at 33.5 µM; in the experiment with HS 578T breast, 67 µM; in the experiment with NCI-H522 lung, 35.9 µM; with LOX IMVI melanoma, 32.9 µM; in the experiment on MALME-3M melanoma it was 36.1 µM; with UACC-62 melanoma, 40 µM. The TGI in the experiment on DU-145 prostate was greater than 100 µM; in the experiment with RXF 393 renal, 27.8 µM; in the experiment on HCT-15 colon, 44 µM; with UACC-257 melanoma, 66.3 µM; in the experiment on MDA-MB-435 it was 92.7 µM; in the experiment with HOP-92 NSCLC it was 32.7 µM.
In the case of `CC1C(c2ccccc2O)c2cc3c(cc2OC1N1CCOCC1)OCO3` (stereo unspecified), the TGI in the experiment on SR leukemia stood at 29.5 µM; in the experiment with HS 578T breast, 57.9 µM; with NCI-H522 lung, 37.8 µM; in the experiment on LOX IMVI melanoma, 41.3 µM; in the experiment with MALME-3M melanoma, 35.1 µM; with UACC-62 melanoma, 90.2 µM. In addition, the TGI in the experiment on DU-145 prostate is greater than 100 µM; in the experiment with RXF 393 renal, 48.9 µM; with HCT-15 colon it was greater than 100 µM; in the experiment on UACC-257 melanoma it was 47 µM; with MDA-MB-435, 82.8 µM; in the experiment with HOP-92 NSCLC it was 71.1 µM.
With `CC(O)[C@@]1(c2ccccc2)CC2(CCN(C)CC2)O[C@H]1C` (stereo partly specified), the TGI in the experiment with SR leukemia, with HS 578T breast, with NCI-H522 lung, with LOX IMVI melanoma, in the experiment with MALME-3M melanoma and with UACC-62 melanoma was greater than 100 µM throughout. Also, the TGI with DU-145 prostate, in the experiment with RXF 393 renal, in the experiment with HCT-15 colon, in the experiment on UACC-257 melanoma, with MDA-MB-435 and with HOP-92 NSCLC was greater than 100 µM each time.
As for `O=c1c2c(F)c(F)c(F)c(F)c2sc2nccn12`, the TGI was 18.7 µM with SR leukemia; 76.2 µM in the experiment with HS 578T breast; 37.2 µM in the experiment on NCI-H522 lung; 26.7 µM in the experiment with LOX IMVI melanoma; 35.4 µM in the experiment on MALME-3M melanoma; 31.8 µM with UACC-62 melanoma. The TGI in the experiment with DU-145 prostate was 41.9 µM; in the experiment on RXF 393 renal, 32 µM; in the experiment on HCT-15 colon, 29 µM; with UACC-257 melanoma, 45.5 µM; in the experiment on MDA-MB-435 it was 28.6 µM; with HOP-92 NSCLC, 39.4 µM.
Consider `O=C(N/N=C/C=C/c1ccc([N+](=O)[O-])o1)c1ccc(C(=O)N/N=C/C=C/c2ccc([N+](=O)[O-])o2)cc1`, for which the TGI was greater than 73.4 µM with SR leukemia; greater than 100 µM in the experiment on HS 578T breast; 89 µM with NCI-H522 lung; greater than 75.8 µM in the experiment with LOX IMVI melanoma; 35.2 µM in the experiment with MALME-3M melanoma; greater than 100 µM with UACC-62 melanoma. The TGI is greater than 73.4 µM in the experiment with DU-145 prostate; 84 µM with RXF 393 renal; greater than 100 µM in the experiment on HCT-15 colon; greater than 30 µM in the experiment with UACC-257 melanoma; greater than 73.8 µM in the experiment with MDA-MB-435; greater than 100 µM in the experiment with HOP-92 NSCLC.
Consider `c1ccc([P+](CCCCCC[P+](c2ccccc2)(c2ccccc2)c2ccccc2)(c2ccccc2)c2ccccc2)cc1`, for which the TGI is greater than 100 µM with SR leukemia; greater than 100 µM with HS 578T breast; greater than 100 µM with NCI-H522 lung; 38.6 µM in the experiment with LOX IMVI melanoma; greater than 100 µM in the experiment on MALME-3M melanoma; greater than 100 µM in the experiment with UACC-62 melanoma. For the same compound, the TGI in the experiment with DU-145 prostate was greater than 100 µM; with RXF 393 renal, greater than 100 µM; in the experiment with HCT-15 colon, greater than 100 µM; in the experiment on UACC-257 melanoma, 8.64 µM; with MDA-MB-435, 72.9 µM; in the experiment with HOP-92 NSCLC, 66.7 µM.
Take `O=c1oc2ccc3ccccc3c2cc1-c1nc2ccc([N+](=O)[O-])cc2o1`: the TGI with SR leukemia is greater than 100 µM; in the experiment on HS 578T breast it was greater than 100 µM; in the experiment with NCI-H522 lung, greater than 100 µM; in the experiment with LOX IMVI melanoma, greater than 91.3 µM; with MALME-3M melanoma, greater than 100 µM; in the experiment on UACC-62 melanoma, greater than 100 µM. The TGI in the experiment on DU-145 prostate was greater than 100 µM; in the experiment with RXF 393 renal, 19.1 µM; in the experiment with HCT-15 colon, greater than 100 µM; in the experiment with UACC-257 melanoma, greater than 100 µM; in the experiment on MDA-MB-435, greater than 100 µM; with HOP-92 NSCLC it was greater than 91 µM.
